How the values were obtained:
[1] = molecular target: T1, ADH1 (Artemisia annua alcohol dehydrogenase) (Artemisia annua, UniProt A0A2U1Q018, G20S/L19S/V78I); experiment: Specific ADH1 activity enzyme assay (crude protein from E. coli, NAD+, GC/MS analysis); assay type: biochemical; details: 1 mM NAD+, 0.1 μg/μl substrate, approximately 90 μg crude protein, 30° C., 30 minutes
T1 construct: 6xHis (N-terminal tag and attB linker encoded by pDEST17); made in house; host or cells: E. coli Rosetta (DE3)
T1 sequence (A0A2U1Q018 whole entry L19S/G20S/V78I): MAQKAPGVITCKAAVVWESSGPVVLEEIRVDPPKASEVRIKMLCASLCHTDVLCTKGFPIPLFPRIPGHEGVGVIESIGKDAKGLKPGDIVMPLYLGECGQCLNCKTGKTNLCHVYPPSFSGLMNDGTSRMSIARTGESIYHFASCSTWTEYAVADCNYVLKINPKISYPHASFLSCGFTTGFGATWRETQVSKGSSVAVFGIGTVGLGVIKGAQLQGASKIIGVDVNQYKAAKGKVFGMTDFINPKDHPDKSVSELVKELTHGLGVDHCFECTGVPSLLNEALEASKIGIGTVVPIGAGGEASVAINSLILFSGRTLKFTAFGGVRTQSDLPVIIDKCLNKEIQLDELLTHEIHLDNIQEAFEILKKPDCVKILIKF
Protocol: The Gateway vector pDEST17 had the Adh1 gene inserted and was subsequently transformed into a competent expression E. coli strain Rosetta (DE3). These cells were grown overnight in 3 ml of LB broth amended with 100 μg/ml ampicillin. An aliquot of 1 ml overnight culture was sub cultured to 100 ml of fresh LB broth also amended with 100 μg/ml of ampicillin. The culture was incubated at 37° C. until the optical density reached 0.8 at 600 nm. A final concentration of 1 mM IPTG was then added to the culture and the flask was incubated at 30° C. for another 4 hours. Cells were harvested by centrifugation at 10,000 rcf for 10 minutes. Pelleted cells were resuspended in 20 mM sodium phosphate pH 7.4 and 500 mM NaCl. Cell walls were disrupted by sonication on ice at intervals of 0.7 seconds for 1 minute, followed by a 1 minute cool down this was repeated three times. The sonicated cells were centrifuged at 10,000 rcf for 10 minutes; the supernatant which contained the soluble ADH1 was concentrated and desalted by spin dialysis (using Amicon Ultra-15 devices; Millipore, Mass.), and stored in a new tube at 4° C. This method of recombination and expression was also used for a control plasmid pDEST17-gus.
Enzyme assay was prepared to determine the specific activity of ADH1. […]

Plasmodium falciparum = details: reported to be more active than artesunate; cited from earlier work

SMILES | oxidation of substrate by ADH1 (product observed by GC/MS) [1] | activity relative to artesunate (Plasmodium falciparum)
C=C(CO)[C@@H]1CC[C@@H](C)[C@@H]2CCC(C)=C[C@@H]21 [artemisinic alcohol] | presence of product artemisinic aldehyde | –
C[C@H]1[C@H](N2CCS(=O)(=O)CC2)O[C@@H]2O[C@@]3(C)CC[C@H]4[C@H](C)CC[C@@H]1[C@@]24OO3 [Artemisone] | – | 10-30 fold
CC1=C[C@H]2[C@@H](CC1)[C@H](C)CC[C@H]2[C@@H](C)CO [dihydroartemisinic alcohol, (11R)-dihydroartemisinic alcohol] | no observed product | –
